Test [1] relates to L1210 leukemia cells. Kind of test: Growth inhibition in L1210 mouse leukemia cells. The test is classed as cell-based. The protocol: In an alternate embodiment of the invention, the analogous thymidine compounds were prepared (i.e., 3 where F═CH3). The thymidine phosphoramidate was activated by reduction of the nitrofuryl group with sodium dithionite in aqueous buffer/acetonitrile at 37° C., and the reaction was monitored by ^31P nmr. Within ten minutes the resonance for the phosphoramidate anion had disappeared and a new peak corresponding to thymidine-5′-phosphate appeared as the exclusive phosphorus-containing product by ^31P nmr. Nucleoside phosphoramidate 3 was then evaluated for its ability to inhibit proliferation of L1210 leukemia cells in vitro. Cells were exposed to drug for 2, 8, 24, and 48 hours; the results are summarized below:
Stock solutions of drugs were prepared in absolute ethanol, and serial dilutions of drug were prepared in ethanol. L1210 cells were suspended in Fisher's medium supplemented with 10% horse serum, 1% glutamine, and 1% antibiotic-antimycotic solution to give 10 mL volumes of cell suspension at a final density of 3-6×10^4 cells/mL. Appropriate volumes of the drug solution were transferred to the cell suspensions, and incubation was continued for 2, 8, 24, or 48 hours. The cells were spun down, resuspended in fresh drug-free medium and returned to the incubator. Final cell counts were determined 48 hours after the start of drug treatment. The data were analyzed by sigmoidal curve fit of cell count vs. Log (drug concentration) and the results expressed as the IC50 (the drug concentration that inhibits cell growth to 50% of control value).

Test [2] relates to luciferase expression in J77 cells transfected with NF-AT-Luciferase plasmid. Description: Luciferase inhibition on transfected J77 cells. The test is classed as cell-based. As to conditions: read-out: IC50 luciferase inhibition. Here is the method: J77 cells (2×10^7 cells in […] of FBS-free RPMI media) were transfected with […] of NF-AT-Luciferase plasmid. Cells were transferred to a flask with 10 mL of complete RPMI media and incubated for 24 hours. After this time cells were spun down, resuspended in 12 mL of complete RPMI media and divided into a 6-well well plate (2 mL/well). Drug stock solutions in DMSO were made and each well was treated with a different concentration and incubated for 2 hours. Each well was then treated with 10 mL of a mixture of 1.25 mg of PMA and 9 mg of Ionomycin in 115 mL of FBS-free RPMI, followed by the addition of 2 mg of Anti-CD3. Cells were incubated for 6 hours, spun down, washed with PBS, lysed for 15 min and centrifuged. Supernantant was collected and stored at −78° C. overnight. Luciferase activity was measured using a luminometer with a mixture of 50 mL of luciferase substrate and 10 ml of supernatant.

[3] abbreviates: Mus musculus, L1210, 48 h, drug exposure 48 h, final cell counts 48 hours after start of drug treatment.
Where [4] appears, read: Mus musculus, L1210, drug exposure 2 h, final cell counts 48 hours after start of drug treatment.
Setting [5] is: Mus musculus, L1210, drug exposure 8 h, final cell counts 48 hours after start of drug treatment.
[6] abbreviates: Mus musculus, L1210, drug exposure 24 h, final cell counts 48 hours after start of drug treatment.

Eight molecules from patent US6903081B2, “Phosphoramidates and methods therefor” (Purdue Research Foundation, priority 2000, dated 2005) can be followed below.

Where two headings read alike, the source gives them in different places.

`CN(CCCCCl)P(=O)(OCC1=CC(=O)c2ccccc2C1=O)OC[C@H]1O[C@@H](n2cc(F)c(=O)[nH]c2=O)CC1O` (stereo partly shown) [Compound 5, 5-Fluoro-2′-deoxyuridyl 2-(1,4-napthoquinonyl)methyl N-methyl-N-(4-chlorobutyl)phosphoramidate]: in test [1], the “inhibition of L1210 cell proliferation, in words” value is recorded as “highly potent inhibitors”. For the same molecule, in test [1] (L1210 cell proliferation), the “potency relative to compound 3” value is reported as “approximately 3 fold”. The IC50 was found to be 44 nM in test [1] (Mus musculus, L1210, 2 h, read-out: L1210 IC50, drug exposure 2 hr, comparison of compound 5 with compound 3); 16 nM in test [1] (Mus musculus, L1210, 8 h, read-out: L1210 IC50, drug exposure 8 hr, comparison of compound 5 with compound 3); 3.1 nM in test [1] (Mus musculus, L1210, 24 h, read-out: L1210 IC50, drug exposure 24 hr, comparison of compound 5 with compound 3); 0.63 nM in test [1] (setting [3]); 0.63 nM in test [1] (Mus musculus, L1210, 48 h, read-out: L1210 IC50, drug exposure 48 hr, comparison of compound 5 with compound 3); 44 nM in test [1] (setting [4]). The 50% inhibitory concentration (IC50) in test [1] (setting [5]) was determined as 16 nM; in test [1] (setting [6]) it was 3.1 nM.

Consider `O=c1[nH]cc(F)c(=O)[nH]1` [Compound 5-FU, reference compound], for which the IC50 is 2500 nM in test [1] (drug exposure 2 h, final cell counts 48 hours after start of drug treatment, read-out: IC50); 2500 nM in test [1] (drug exposure 2 hr, comparison of compound 5 with compound 3, read-out: L1210 IC50); 2740 nM in test [1] (drug exposure 2 hr, read-out: L1210 IC50); 1010 nM in test [1] (drug exposure 8 h, final cell counts 48 hours after start of drug treatment, read-out: IC50); 1010 nM in test [1] (drug exposure 8 hr, comparison of compound 5 with compound 3, read-out: L1210 IC50); 1390 nM in test [1] (drug exposure 8 hr, read-out: L1210 IC50). Further, the IC50 in test [1] (drug exposure 24 h, final cell counts 48 hours after start of drug treatment, read-out: IC50) was 360 nM; in test [1] (drug exposure 24 hr, comparison of compound 5 with compound 3, read-out: L1210 IC50), 360 nM; in test [1] (drug exposure 24 hr, read-out: L1210 IC50), 495 nM; in test [1] (drug exposure 48 h, final cell counts 48 hours after start of drug treatment, read-out: IC50) it was 200 nM; in test [1] (drug exposure 48 hr, comparison of compound 5 with compound 3, read-out: L1210 IC50), 200 nM; in test [1] (drug exposure 48 hr, read-out: L1210 IC50), 265 nM.

On to `COC1=CC(=O)c2c(cc(COP(=O)(OCC3OC(n4cc(F)c(=O)[nH]c4=O)CC3O)N(C)CCCCCl)n2C)C1=O` (stereo not shown) [Compound 6, 5-Fluoro-2′-deoxyuridyl 2-(5-methoxy-N-methylindoloquinone)methyl N-methyl-N-(4-chlorobutyl)phosphoramidate], for which the IC50 in test [1] (setting [3]) worked out at 1.6 nM; in test [1] (setting [4]), 34 nM; in test [1] (setting [5]), 48 nM; in test [1] (setting [6]), 4.8 nM.

As for `CC(NC(=O)c1ccc(OP(=O)(OCc2ccc([N+](=O)[O-])o2)N(C)CCCCCl)cc1)c1ccc(OCC2CCCCC2)c(C(N)=O)c1` (stereo not shown) [Compound 35], the concentration for half-maximal inhibition (IC50) in test [2] was determined as 34100 nM.

For the molecule `CC(NC(=O)c1ccc(OP(=O)(OCC2=CC(=O)c3ccccc3C2=O)N(C)CCCCCl)cc1)c1ccc(OCC2CCCCC2)c(C(N)=O)c1` (stereo not shown) [Compound 37], the IC50 in test [2] came out at 4200 nM.

Consider `CC(=O)NC(Cc1ccc(OP(=O)(OCc2ccc([N+](=O)[O-])o2)N(C)CCCCCl)cc1)C(=O)NC(C)c1ccc(OCC2CCCCC2)c(C(N)=O)c1` (stereo not shown) [Compound 38], for which the IC50 in test [2] was 5600 nM.

`CC(NC(=O)Cc1ccc(OP(=O)(OCc2ccc([N+](=O)[O-])o2)N(C)CCCCCl)cc1)c1ccc(OCC2CCCCC2)c(C(N)=O)c1` (stereo not shown) [Compound 40]: in test [2], the IC50 is 3400 nM.

Take `CC(NC(=O)c1ccc(NP(=O)(OCc2ccc([N+](=O)[O-])o2)N(C)CCCCCl)cc1)c1ccc(OCC2CCCCC2)c(C(N)=O)c1` (stereo not shown) [Compound 42]: the 50% inhibitory concentration (IC50) in test [2] (transfected J77 cells, drug 2 hours, then PMA/Ionomycin/Anti-CD3 for 6 hours) was determined as 15000 nM.

For orientation: IC50 means the point on the concentration scale where inhibition reaches its midpoint.
